Assay results reported in patent publication US20250057799A1, “Anti-Inflammatory Methods with Compositions Comprising Site-Specific Isotopically-Modified Fatty Acids” (BioJiva LLC, priority 2021, published 2025).
“Also recorded” adds a separate entry of the source.

Tested on: LPS-inflicted lung inflammation
Assay: LPS-inflicted lung inflammation model in mice (lung morphometry)
Type: in vivo
Conditions: for interalveolar septa thickness (result in words) / alveolar lumen area (result in words): 6-week dietary course then single intranasal LPS; for interalveolar septa thickness (result in words): compared with control mice without LPS; for alveolar lumen area (result in words): compared with control mice without LPS / H-form; for Partition thickness Me (25%; 75%): 6-week dietary course followed by single intranasal LPS, median
Description: FIGS. 3-6. Groups of female (f) and male (m) mice received a 6-week course of dietary (H) AA or a 6-week course of deuterated arachidonic acid (D6-ARA, 15 mg/day) followed by single intranasal administration of LPS.
COX and LOX inhibitors can be employed to down-regulate this process, with various efficacy. In contrast, the methods of the present disclosure rely on deuteration of the three oxidation prone sites within PUFA molecules, to substantially slow down the rate limiting step of oxidation (both enzymatic and non-enzymatic) via the isotope effect (IE). Made in high yield via a catalytic process, such D-PUFAs were tested in a lipopolysaccharide (LPS)-inflicted lung inflammation model in mice, a well-known lung inflammation model. (See Example 1.)
For example, the mouse LPS model has been used as a model for human acute lung injury (ALI), as the mouse lung parenchyma is damaged by the generation and release of proteases and reactive oxygen and nitrogen species produced by activated lung macrophages and transmigrated neutrophils in the interstitial and alveolar compartments. The end results are microvascular injury and diffuse alveolar damage with intrapulmonary hemorrhage, edema, and fibrin deposition (Johnson and Ward, J. Clin. Invest., (1974), 54:349-357; Flierl et al., Med. Hypothesis Res., (2006), 3:727,738), which are also features in patients with ALI and the acute respiratory distress syndrome (ARDS) (Kabir et al., Shock, (2002), 17:300-303; Ward, Am. J. Pathol., (1996), 149:1081-1086). This LPS model recapitulates aspects of the inflammatory cascades that are associated with pulmonary inflammation associated with lung disease in humans, and so is useful as a screen for compounds that may disrupt these cascades and attenuate or abort the disease process. As discussed herein, in some embodiments, the D-PUFAs of the present disclosure are administered to break the inflammatory cascade of specific cytokines and chemokines known to induce and amplify lung inflammation. Thus, for example, one can experimentally assess the efficacy of the D-PUFAs by examining whether the levels of inflammation associated markers are reduced. Two such markers, monocyte chemoattractant protein (MCP-1), and tumor necrosis factor alpha (TNF-a), are found to be associated with early and chronic infection and inflammation in humans and are mirrored in rodent models of airway inflammation including the mouse LPS pulmonary inflammation model.
LPS treatment promotes inflammation through various mechanisms including secretion of pro-inflammatory cytokines, eicosanoids and induction of ROS. Following induction by the intranasal administration of LPS, an acute lung inflammation quickly follows. […] Such a pronounced inflammatory infiltration of the interalveolar septa contributed to their destruction and more frequent formation of emphysema foci in this group. […] (See FIGS. 3-6.)
The degree of alveolar lumen area changes in both groups of animals depended on gender.

| Compound | interalveolar septa thickness (result in words) | alveolar lumen area (result in words) | alveolar lumen area (result in words) (listed as D-form) | degree of inflammatory lesion of the lungs (D-form compared to H-form, after 6-week course and LPS) | Partition thickness Me (25%; 75%) (females) [μm] | Partition thickness Me (25%; 75%) (males) [μm] | protective / therapeutic effect compared to other deuterated PUFAs (preliminary data (not shown)) | interalveolar septa thickness (result in words) (listed as AA) |
| --- | --- | --- | --- | --- | --- | --- | --- | --- |
| [2H]C([2H])(/C=C\CCCCC)/C=C\C([2H])([2H])/C=C\C([2H])([2H])/C=C\CCCC(=O)O [D-ara, 7,7,10,10,13,13-D6-arachidonic acid] | consistent with controls | consistent with controls | decrease in alveoli lumens | lesser degree of inflammatory lesion | 3.6 | 5.55 | better therapeutic effect; also recorded: best protective effect | – |
| CCCCC/C=C\C/C=C\C/C=C\C/C=C\CCCC(=O)O [H-ara, arachidonic acid, reference compound] | significantly increased | increase | – | – | 9.1 | – | – | increase |
